In patent US9630977B2, “Cephalosporin derivatives and pharmaceutical compositions thereof” (Legochem Biosciences, Inc., priority 2011, dated 2017):
Converted amounts (≈) assume the structure as drawn. Read-outs that look alike come from different tables or passages of the source.

How the values were obtained:
Experiment in all cases: In vitro antibacterial activity test (broth microdilution)
Assay type in all cases: cell-based
K. pneumoniae β13 = system: K. pneumoniae β13
Summary of the method: (§1)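 Values: MIC90, ug/mL. Method: CLSI broth microdilution on clinical isolates, compounds at final 0.0626 to 128 ug/mL.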

P. aeruginosa 6065Y = system: P. aeruginosa 6065Y
Summary of the method: as §1

E. coli AG100 = system: E. coli AG100
Summary of the method: as §1

E. cloacae β19 = system: E. cloacae β19
Summary of the method: as §1

K. pneumoniae β14 = system: K. pneumoniae β14
Summary of the method: as §1

P. aeruginosa 43 = system: P. aeruginosa 43
Summary of the method: as §1

E. coli β4 = system: E. coli β4
Summary of the method: as §1

A. baumannii 49 = system: A. baumannii 49
Summary of the method: as §1

P. aeruginosa 40 = system: P. aeruginosa 40
Summary of the method: as §1

P. aeruginosa 1912E = system: P. aeruginosa 1912E
Summary of the method: as §1

M. catarrhalis 2524 = system: M. catarrhalis 2524
Summary of the method: as §1

K. pneumoniae β9 = system: K. pneumoniae β9
Summary of the method: as §1

A. baumannii 52 = system: A. baumannii 52
Summary of the method: as §1

K. pneumoniae 2011E = system: K. pneumoniae 2011E
Summary of the method: as §1

P. aeruginosa 37 = system: P. aeruginosa 37
Summary of the method: as §1

K. pneumoniae β11 = system: K. pneumoniae β11
Summary of the method: as §1

K. pneumoniae β10 = system: K. pneumoniae β10
Summary of the method: as §1

A. baumannii 46 = system: A. baumannii 46
Summary of the method: as §1

[1] = system: A. calcoaceticus ATCC15473
Summary of the method: as §1

[2] = Acinetobacter baumannii, 49, A. baumannii 49
[3] = Pseudomonas aeruginosa, 37, P. aeruginosa 37
[4] = Acinetobacter baumannii, 46, A. baumannii 46
[5] = Acinetobacter calcoaceticus, ATCC15473, A. calcoaceticus ATCC15473

Compound | MIC90 (K. pneumoniae β13; Klebsiella pneumoniae) | MIC90 (P. aeruginosa 6065Y; Pseudomonas aeruginosa, 6065Y) | MIC90 (E. coli AG100; Escherichia coli, AG100) | MIC90 (E. cloacae β19; Enterobacter cloacae) | MIC90 (K. pneumoniae β14; Klebsiella pneumoniae) | MIC90 (P. aeruginosa 43; Pseudomonas aeruginosa, 43) | MIC90 (E. coli β4; Escherichia coli) | MIC90 (A. baumannii 49; [2]) | MIC90 (P. aeruginosa 40; Pseudomonas aeruginosa, 40) | MIC90 (P. aeruginosa 1912E; Pseudomonas aeruginosa, 1912E) | MIC90 (M. catarrhalis 2524; Moraxella catarrhalis, 2524) | MIC90 (K. pneumoniae β9; Klebsiella pneumoniae) | MIC90 (A. baumannii 52; Acinetobacter baumannii, 52) | MIC90 (K. pneumoniae 2011E; Klebsiella pneumoniae, 2011E) | MIC90 (P. aeruginosa 37; [3]) | MIC90 (K. pneumoniae β11; Klebsiella pneumoniae) | MIC90 (K. pneumoniae β10; Klebsiella pneumoniae) | MIC90 (A. baumannii 46; [4]) | MIC90 [1, 5] | also measured
CC(C)(ON=C(C(=O)NC1C(=O)N2C(C(=O)O)=C(C=CC[n+]3cnc(N)c(NC(=O)CCN)c3N)CSC12)c1csc(N)n1)C(=O)O.O=C([O-])C(F)(F)F (centres unmarked) [Compound 45] | – | – | – | – | – | – | – | – | – | – | – | – | – | – | – | – | – | – | – | MIC90 (K. pneumoniae β13; K. pneumoniae β13): 0.5 µg/mL; MIC90 (P. aeruginosa 6065Y): 16 µg/mL; MIC90 (E. coli AG100; E. coli AG100): 0.25 µg/mL; MIC90 (E. cloacae β19): 0.25 µg/mL; MIC90 (K. pneumoniae β14): 1 µg/mL; MIC90 (P. aeruginosa 43; P. aeruginosa 43): >128 µg/mL; MIC90 (E. coli β4): 0.25 µg/mL; MIC90 (A. baumannii 49; A. baumannii 49): >128 µg/mL; MIC90 (P. aeruginosa 40; P. aeruginosa 40): 8 µg/mL; MIC90 (P. aeruginosa 1912E): 4 µg/mL; MIC90 (M. catarrhalis 2524; M. catarrhalis 2524): <0.0625 µg/mL; MIC90 (K. pneumoniae β9; K. pneumoniae β9): 0.5 µg/mL; MIC90 (A. baumannii 52; A. baumannii 52): >128 µg/mL; MIC90 (K. pneumoniae 2011E; K. pneumoniae 2011E): 0.5 µg/mL; MIC90 (P. aeruginosa 37; P. aeruginosa 37): 16 µg/mL; MIC90 (K. pneumoniae β11; K. pneumoniae β11): 16 µg/mL; MIC90 (K. pneumoniae β10; K. pneumoniae β10): 0.5 µg/mL; MIC90 (A. baumannii 46; A. baumannii 46): 16 µg/mL; MIC90 ([1]; A. calcoaceticus ATCC15473): 2 µg/mL
CC(C)(O/N=C(\C(=O)N[C@@H]1C(=O)N2C(C(=O)[O-])=C(C[n+]3cnc(N)c(NCCNC(=O)c4cc(=O)c(O)cn4O)c3)CSC12)c1nsc(N)n1)C(=O)O (some centres unmarked) [Compound 16] | – | – | – | – | – | – | – | – | – | – | – | – | – | – | – | – | – | – | – | MIC90 (K. pneumoniae β13; Klebsiella pneumoniae, K. pneumoniae β13, read-out: MIC90): 32 µg/mL (≈ 41.3 µM); MIC90 (P. aeruginosa 6065Y; Pseudomonas aeruginosa, read-out: MIC90): 2 µg/mL (≈ 2.58 µM); MIC90 (E. coli AG100; Escherichia coli, AG100, E. coli AG100, read-out: MIC90): 1 µg/mL (≈ 1.29 µM); MIC90 (E. cloacae β19; Enterobacter cloacae, read-out: MIC90): 16 µg/mL (≈ 20.7 µM); MIC90 (K. pneumoniae β14; Klebsiella pneumoniae, read-out: MIC90): 128 µg/mL (≈ 165 µM); MIC90 (P. aeruginosa 43; Pseudomonas aeruginosa, P. aeruginosa 43, read-out: MIC90): 2 µg/mL (≈ 2.58 µM); MIC90 (E. coli β4; Escherichia coli, read-out: MIC90): 4 µg/mL (≈ 5.16 µM); MIC90 (A. baumannii 49; Acinetobacter baumannii, A. baumannii 49, read-out: MIC90): > 128 µg/mL; MIC90 (P. aeruginosa 40; Pseudomonas aeruginosa, 40, P. aeruginosa 40, read-out: MIC90): 0.25 µg/mL (≈ 0.323 µM); MIC90 (P. aeruginosa 1912E; Pseudomonas aeruginosa, 1912E, read-out: MIC90): 1 µg/mL (≈ 1.29 µM); MIC90 (M. catarrhalis 2524; Moraxella catarrhalis, M. catarrhalis 2524, read-out: MIC90): 1 µg/mL (≈ 1.29 µM); MIC90 (K. pneumoniae β9; Klebsiella pneumoniae, K. pneumoniae β9, read-out: MIC90): 128 µg/mL (≈ 165 µM); MIC90 (A. baumannii 52; Acinetobacter baumannii, A. baumannii 52, read-out: MIC90): 32 µg/mL (≈ 41.3 µM); MIC90 (K. pneumoniae 2011E; Klebsiella pneumoniae, 2011E, K. pneumoniae 2011E, read-out: MIC90): 8 µg/mL (≈ 10.3 µM); MIC90 (P. aeruginosa 37; Pseudomonas aeruginosa, 37, P. aeruginosa 37, read-out: MIC90): 0.5 µg/mL (≈ 0.645 µM); MIC90 (K. pneumoniae β11; Klebsiella pneumoniae, K. pneumoniae β11, read-out: MIC90): > 128 µg/mL; MIC90 (K. pneumoniae β10; Klebsiella pneumoniae, K. pneumoniae β10, read-out: MIC90): 2 µg/mL (≈ 2.58 µM); MIC90 (A. baumannii 46; Acinetobacter baumannii, A. baumannii 46, read-out: MIC90): 2 µg/mL (≈ 2.58 µM); MIC90 ([1]; Acinetobacter calcoaceticus, A. calcoaceticus ATCC15473, read-out: MIC90): 0.25 µg/mL (≈ 0.323 µM)
C[C@H](O/N=C(\C(=O)N[C@@H]1C(=O)N2C(C(=O)[O-])=C(C[n+]3cnc(NCCN)c(NCCNC(=O)c4cc(=O)c(O)cn4O)c3)CSC12)c1nc(N)sc1Cl)C(=O)O (some centres unmarked) [Compound 21] | 2 µg/mL (≈ 2.39 µM) | 4 µg/mL (≈ 4.78 µM) | 0.5 µg/mL (≈ 0.597 µM) | 16 µg/mL (≈ 19.1 µM) | 16 µg/mL (≈ 19.1 µM) | 2 µg/mL (≈ 2.39 µM) | 4 µg/mL (≈ 4.78 µM) | 8 µg/mL (≈ 9.56 µM) | 8 µg/mL (≈ 9.56 µM) | 4 µg/mL (≈ 4.78 µM) | 0.125 µg/mL (≈ 0.149 µM) | 2 µg/mL (≈ 2.39 µM) | 2 µg/mL (≈ 2.39 µM) | 4 µg/mL (≈ 4.78 µM) | 32 µg/mL (≈ 38.2 µM) | 8 µg/mL (≈ 9.56 µM) | 2 µg/mL (≈ 2.39 µM) | 16 µg/mL (≈ 19.1 µM) | 1 µg/mL (≈ 1.19 µM) | –
CC(C)(O/N=C(\C(=O)N[C@@H]1C(=O)N2C(C(=O)[O-])=C(/C=C/C[n+]3cnc(N)c(NCCN)c3)CSC12)c1nc(N)sc1Cl)C(=O)O (some centres unmarked) [Compound 54] | 1 µg/mL (≈ 1.47 µM) | 16 µg/mL (≈ 23.5 µM) | 0.25 µg/mL (≈ 0.367 µM) | 4 µg/mL (≈ 5.87 µM) | 1 µg/mL (≈ 1.47 µM) | 64 µg/mL (≈ 94 µM) | 0.5 µg/mL (≈ 0.734 µM) | 128 µg/mL (≈ 188 µM) | 4 µg/mL (≈ 5.87 µM) | 2 µg/mL (≈ 2.94 µM) | < 0.0625 µg/mL | 1 µg/mL (≈ 1.47 µM) | 32 µg/mL (≈ 47 µM) | 1 µg/mL (≈ 1.47 µM) | 4 µg/mL (≈ 5.87 µM) | 2 µg/mL (≈ 2.94 µM) | 0.5 µg/mL (≈ 0.734 µM) | 4 µg/mL (≈ 5.87 µM) | 1 µg/mL (≈ 1.47 µM) | –
CC(C)(O/N=C(\C(=O)N[C@@H]1C(=O)N2C(C(=O)[O-])=C(/C=C/C[n+]3cnc(N)c(NC(=O)CCCN)c3)CSC12)c1nc(N)sc1Cl)C(=O)O (some centres unmarked) [Compound 64] | 2 µg/mL (≈ 2.77 µM) | 32 µg/mL (≈ 44.2 µM) | 0.5 µg/mL (≈ 0.691 µM) | 8 µg/mL (≈ 11.1 µM) | 2 µg/mL (≈ 2.77 µM) | 128 µg/mL (≈ 177 µM) | 1 µg/mL (≈ 1.38 µM) | 32 µg/mL (≈ 44.2 µM) | 8 µg/mL (≈ 11.1 µM) | 4 µg/mL (≈ 5.53 µM) | < 0.0625 µg/mL | 2 µg/mL (≈ 2.77 µM) | 32 µg/mL (≈ 44.2 µM) | 2 µg/mL (≈ 2.77 µM) | 16 µg/mL (≈ 22.1 µM) | 8 µg/mL (≈ 11.1 µM) | 1 µg/mL (≈ 1.38 µM) | 16 µg/mL (≈ 22.1 µM) | 1 µg/mL (≈ 1.38 µM) | –
